“Also recorded” adds a separate entry of the source. Where two headings read alike, the source gives them in different places. Values belong to the molecule of their own block, whether it stands above or below them. No end group written: not given here.
Legend:
[1] = test system: wildtype peptide-pulsed target cells; experiment: CTL recognition of wildtype peptide-pulsed targets; type: cell-based, human; conditions: for pulsed EHM target cell line: positive responses/total tested, positive = 10% specific lysis above background or twice background and at least 50 pg IFNg/well in at least one of 48 wells
[2] = test system: tumor cell lines expressing the TAA; experiment: CTL recognition of endogenous targets (tumor cell lines expressing the TAA); type: cell-based, human; conditions: for Tumor target cell line: only wells positive for peptide-pulsed targets
[3] = test system: peptide-pulsed target cells; conditions: outside investigators; cited from earlier work
HLA-A*0101 = HLA-A*0101 (Homo sapiens, UniProt P04439, A114D/A174V/A182V/D101N/D185E/E176A/E190D/L180R/Q94H/R68K/S129P/T187R/V100A/V91M/W191G); experiment: Class I peptide-binding assay, HLA-A*0101
HLA-B*4002 = HLA-B*4002 (Homo sapiens, UniProt P01889, A65T/A93T/A95T/D138N/D201E/D98Y/E176V/E204Q/E69K/K202T/N87E/Q56L/Q94N/R180L/S48T/Y33H/Y91S); experiment: Class I peptide-binding assay, HLA-B*4002 (B44 supertype); conditions: HER2/neu-derived B44 peptides, Table 27; binding to purified HLA-B*4002
HLA-A*0301 = HLA-A*0301 (Homo sapiens, UniProt P04439); experiment: Class I peptide-binding assay, HLA-A*0301
HLA-A*1101 = HLA-A*1101 (Homo sapiens, UniProt P04439, A114D/D185E/E176A/F33Y/L180Q/S129P/T187R); experiment: Class I peptide-binding assay, HLA-A*1101
HLA-A*2402 = HLA-A*2402 (Homo sapiens, UniProt P04439, D101N/D140Y/D185E/E176V/E190D/F33S/G103R/G107R/I119L/I121M/I306V/K335N/L105A/L180Q/L300P/N151K/N90K/Q86E/Q94H/R106L/R138H/R89G/T104I/T345S/V100E/W191G/Y123F); experiment: Class I peptide-binding assay, HLA-A*2402; conditions: Table 19a, CEA-derived A24 binders
[4] = co-emulsified with HPV-derived CTL epitopes; cited from earlier work
HLA-A*3101 = HLA-A*3101 (Homo sapiens, UniProt P04439, A270S/D185E/E176V/E277Q/F33T/G231S/G80R/H175R/I121M/I218V/I322F/K168Q/L300P/L318F/M331R/P217A/Q94H/R138Q/T323A/T345S/T97I/V358M); experiment: Class I peptide-binding assay, HLA-A*3101; conditions: Table 16b, Her2/neu-derived
HLA-A*3301 = HLA-A*3301 (Homo sapiens, UniProt P04439, A270S/D185E/E176V/E277Q/E87N/F33T/G231S/H175R/I121M/I218V/I322F/K168Q/K210R/L300P/L318F/M331R/P217A/Q86R/Q94H/R138Q/T323A/T345S/T97I/V358M/Y195H); experiment: Class I peptide-binding assay, HLA-A*3301; conditions: Table 16b, Her2/neu-derived
HLA-A*6801 = HLA-A*6801 (Homo sapiens, UniProt P04439, A269V/D185E/E176V/E277Q/E87N/F33Y/G231S/I121M/I166T/I218V/L180W/L300P/L318F/N151K/P208A/P217A/Q86R/R169H/T345S); experiment: Class I peptide-binding assay, HLA-A*6801; conditions: Table 16b, Her2/neu-derived
[5] = 938mel (A3−, Mage2+, Mage3+) and 624mel (A3+, Mage2+, Mage3+)
[6] = Table 18a, CEA-derived A1 binders
[7] = Table 16c, second part, positive/total tested
[8] = Table 16d, second part, positive/total tested
[9] = SW403 (A3+, p53−) and SW403/p53 transfectant (A3+, p53+)

Molecule: CC[C@H](C)[C@H](NC(=O)[C@@H](NC(=O)[C@@H](N)[C@@H](C)O)[C@@H](C)O)C(=O)N[C@@H](CC(N)=O)C(=O)N[C@@H](Cc1ccc(O)cc1)C(=O)N[C@H](C(=O)N[C@@H](CC(C)C)C(=O)N[C@@H](Cc1c[nH]c2ccccc12)C(=O)N[C@@H](CCCNC(=N)N)C(=O)O)[C@@H](C)O [compound 82]
pulsed EHM target cell line [1]: 7/7
Tumor target cell line [2, 5]: 2/5

Molecule: p53.172B5K10: p53-derived A3 supertype analog, B at position 5 and K at position 10
CTL recognition of wildtype peptide-pulsed targets (in words) [1]: recognize analog and wildtype peptide-pulsed targets; also recorded: recognize both the wildtype sequence; also recorded: lyse wildtype-peptide coated targets
CTL recognition of tumor / endogenous targets (in words) [2]: transfected tumor target cells; also recorded: p53 transfected tumor targets
CTL recognition of tumor / endogenous targets (in words) ([2]; listed as p53.172.B5KIO): induce tumor-reactive CTLs

Molecule: MAGE3.189: MAGE3-derived A3 supertype wildtype peptide (Table 16c) (LLGDNQIMPK)
CTL induction / antigenicity reported in the literature (in words) [3]: antigenic

Molecule: CC(C)C[C@H](NC(=O)[C@H](C)NC(=O)[C@@H]1CCCN1C(=O)[C@H](CO)NC(=O)[C@H](Cc1ccc(O)cc1)NC(=O)[C@@H](NC(=O)[C@@H](N)CS)[C@@H](C)O)C(=O)N[C@@H](CC(N)=O)C(=O)N[C@@H](CCCCN)C(=O)O [compound 107]
pulsed EHM target cell line [1]: 0/1

IC50 (HLA-A*0101; [6]): 96 nM
Molecule: H-LTDNNSGSY-OH

IC50 (HLA-B*4002): 9.5 nM
Molecule: CC[C@H](C)[C@H](NC(=O)[C@@H](NC(=O)[C@H](CS)NC(=O)[C@@H](NC(=O)[C@@H]1CCCN1C(=O)[C@@H]1CCCN1C(=O)[C@H](CCC(N)=O)NC(=O)[C@@H]1CCCN1C(=O)[C@H](CC(C)C)NC(=O)[C@H](CCCNC(=N)N)NC(=O)[C@H](CCC(=O)O)NC(=O)CN)[C@@H](C)CC)[C@@H](C)O)C(=O)O [compound 493]

Molecule: MAGE3.196 9-mer: MAGE3-derived B7 motif wildtype 9-mer
CTL induction / antigenicity reported in the literature (in words) [3]: antigenicity

IC50 (HLA-A*0301; Table 16d, p53-derived): 550 nM
IC50 (HLA-A*1101; Table 16d, p53-derived): 4.3 nM
Molecule: SSCMGGMNR [compound 117]

IC50 (HLA-A*2402): 1460 nM
Molecule: H-LWWYNGQSL-OH

Molecule: CC[C@H](C)[C@H](NC(=O)[C@@H](N)[C@@H](C)O)C(=O)N[C@@H](CO)C(=O)N1CCC[C@H]1C(=O)N[C@@H](CC(C)C)C(=O)N[C@@H](CC(N)=O)C(=O)N[C@H](C(=O)N[C@@H](CO)C(=O)N[C@@H](Cc1ccc(O)cc1)C(=O)N[C@@H](CCCCN)C(=O)O)[C@@H](C)O
Immunogenicity Wildtype ([1]; Table 20): 2/3

Molecule: CC(C)[C@H](NC(=O)[C@@H](N)CCCNC(=N)N)C(=O)N[C@@H](CS)C(=O)N[C@@H](C)C(=O)N[C@@H](CS)C(=O)N1CCC[C@H]1C(=O)NCC(=O)N[C@@H](CCCNC(=N)N)C(=O)O [compound 124]
pulsed EHM target cell line [1]: 0/1

IC50 (HLA-A*0101; [6]): 641 nM
Molecule: H-ITEKNSCLY-OH

IC50 (HLA-A*0101; [6]): 45 nM
Molecule: H-HSDSNFSPQY-OH

Molecule: CSCC[C@H](NC(=O)[C@H](CC(C)C)NC(=O)[C@H](CCCCN)NC(=O)[C@H](CCCCN)NC(=O)[C@H](Cc1c[nH]cn1)NC(=O)[C@H](CCCNC(=N)N)NC(=O)[C@H](CO)NC(=O)[C@@H](NC(=O)[C@@H](N)CO)[C@@H](C)O)C(=O)N[C@@H](Cc1ccccc1)C(=O)N[C@@H](CCCCN)C(=O)O [compound 126]
pulsed EHM target cell line [1]: 1/2

Molecule: CC[C@H](C)[C@H](NC(=O)[C@@H](NC(=O)[C@@H](NC(=O)[C@H](CO)NC(=O)[C@@H](N)Cc1ccccc1)[C@@H](C)O)[C@@H](C)O)C(=O)N[C@@H](CC(N)=O)C(=O)N[C@@H](Cc1ccc(O)cc1)C(=O)N[C@H](C(=O)N[C@@H](CC(C)C)C(=O)N[C@@H](Cc1c[nH]c2ccccc12)C(=O)N[C@@H](CCCNC(=N)N)C(=O)O)[C@@H](C)O [compound 80]
Immunogenicity Wildtype [1, 7]: 0/2

Molecule: C[C@@H](O)[C@H](NC(=O)[C@@H](N)CCCCN)C(=O)N[C@@H](Cc1ccc(O)cc1)C(=O)N[C@@H](CCC(N)=O)C(=O)NCC(=O)N[C@@H](CO)C(=O)N[C@@H](Cc1ccc(O)cc1)C(=O)NCC(=O)N[C@@H](Cc1ccccc1)C(=O)N[C@@H](CCCCN)C(=O)O
Immunogenicity Wildtype ([1]; Table 20): 0/1
Immunogenicity Tumor ([2]; Table 20): 0/1

IC50 (HLA-A*0101; Table 18c, Mage2/3-derived A1 binders): 96 nM
Molecule: H-LTQEFVQENY-OH

Molecule: CC[C@H](C)[C@H](NC(=O)[C@H](C)NC(=O)[C@H](CCSC)NC(=O)[C@H](C)NC(=O)[C@H](CCCNC(=N)N)NC(=O)[C@@H](NC(=O)[C@H](CCCNC(=N)N)NC(=O)[C@@H](NC(=O)CN)[C@@H](C)O)C(C)C)C(=O)N[C@@H](Cc1ccc(O)cc1)C(=O)N[C@@H](CCCCN)C(=O)O [compound 111]
pulsed EHM target cell line [1]: 0/1

Molecule: CC(C)C[C@H](NC(=O)[C@H](CC(C)C)NC(=O)[C@H](CC(C)C)NC(=O)[C@H](Cc1ccccc1)NC(=O)[C@H](Cc1c[nH]cn1)NC(=O)[C@@H](NC(=O)[C@@H](N)CC(C)C)C(C)C)C(=O)N[C@@H](CCCCN)C(=O)N[C@@H](CCCCN)C(=O)O [compound 87]
Tumor target cell line [2, 5]: 0/1
Immunogenicity Tumor [2, 7]: 0/1

Molecule: C[C@@H](O)[C@H](NC(=O)[C@@H](N)CCCCN)C(=O)N[C@@H](Cc1ccc(O)cc1)C(=O)N[C@@H](CCC(N)=O)C(=O)NCC(=O)N[C@@H](CO)C(=O)N[C@@H](Cc1ccc(O)cc1)C(=O)NCC(=O)N[C@@H](Cc1ccccc1)C(=O)N[C@@H](CCCCN)C(=O)O [compound 104]
Immunogenicity Wildtype [1, 8]: 0/1
pulsed EHM target cell line [1]: 0/1
Tumor target cell line [2, 9]: 0/1
Immunogenicity Tumor [2, 8]: 0/1

Molecule: CC[C@H](NC(=O)[C@H](CCCNC(=N)N)NC(=O)[C@H](CCCNC(=N)N)NC(=O)[C@@H](NC(=O)[C@@H](N)C(C)C)C(C)C)C(=O)N1CCC[C@H]1C(=O)N[C@@H](Cc1c[nH]cn1)C(=O)N[C@@H](Cc1c[nH]cn1)C(=O)N[C@@H](CCC(=O)O)C(=O)N[C@@H](CCCCN)C(=O)O [compound 116]
Immunogenicity Wildtype [1, 8]: 1/2
pulsed EHM target cell line [1]: 1/2
Tumor target cell line [2, 9]: 1/2
Immunogenicity Tumor [2, 8]: 1/2

Molecule: CC[C@H](C)[C@H](NC(=O)CNC(=O)[C@H](Cc1ccccc1)NC(=O)[C@@H](NC(=O)[C@@H](N)C(C)C)C(C)C)C(=O)N[C@@H](CC(C)C)C(=O)N[C@H](C(=O)N[C@@H](CCCCN)C(=O)N[C@@H](CCCNC(=N)N)C(=O)O)[C@@H](C)CC
Immunogenicity Tumor ([2]; Table 20): 0/1

Molecule: aKXVAAWTLKAAa-NH2 [PADRE®, a=D-alanine, X=cyclohexylalanine]
safety in the trial (in words) [4]: favorable safety profile

Molecule: CC[C@H](NC(=O)[C@H](CCCNC(=N)N)NC(=O)[C@H](CCCNC(=N)N)NC(=O)[C@@H](NC(=O)[C@@H](N)C(C)C)C(C)C)C(=O)N1CCC[C@H]1C(=O)N[C@@H](Cc1c[nH]cn1)C(=O)N[C@@H](Cc1c[nH]cn1)C(=O)N[C@@H](CCC(=O)O)C(=O)N[C@@H](CCCCN)C(=O)O [VVRRBPHHEK]
Immunogenicity Wildtype ([1]; Table 20): 1/2
Immunogenicity Tumor ([2]; Table 20): 1/2

Molecule: CC[C@H](C)[C@H](NC(=O)CNC(=O)[C@H](Cc1ccccc1)NC(=O)[C@@H](NC(=O)[C@@H](N)C(C)C)C(C)C)C(=O)N[C@@H](CC(C)C)C(=O)N[C@H](C(=O)N[C@@H](CCCCN)C(=O)N[C@@H](CCCNC(=N)N)C(=O)O)[C@@H](C)CC [compound 57]
Number of CTL inductions yielding positive responses/total tested, Wildtype-pulsed EHM target cell line ([1]; positive = 10% specific lysis above background (51Cr release) or twice background and at least 50 pg IFNγ/well in at least one of 48 wells): 1/3

IC50 (HLA-A*0301; Table 16b, Her2/neu-derived): 3670 nM
IC50 (HLA-A*1101; Table 16b, Her2/neu-derived): 375 nM
IC50 (HLA-A*3101): 290 nM
IC50 (HLA-A*3301): 193 nM
IC50 (HLA-A*6801): 15 nM
Molecule: CC[C@H](C)[C@H](NC(=O)CNC(=O)[C@H](Cc1ccccc1)NC(=O)[C@@H](NC(=O)[C@@H](N)C(C)C)C(C)C)C(=O)N[C@@H](CC(C)C)C(=O)N[C@H](C(=O)N[C@@H](CCCCN)C(=O)N[C@@H](CCCNC(=N)N)C(=O)N[C@@H](CCCNC(=N)N)C(=O)O)[C@@H](C)CC [compound 58]

— patent US20060094649A1, “Hla-a1,-a2,-a3,-a24,-b7, and-b44 tumor associated antigen peptides and compositions” (priority 2002, published 2006)
